Measured values: patent EP4778516A1, “CALCIFICATION ENHANCER FOR OSTEOBLAST MC3T3-E1 CELL” (Watanabe Oyster Laboratory Co., Ltd., priority 2023, dated 2025)
Where two headings read alike, the source gives them in different places.

What was measured:
[1] = tested on: bone-metastatic prostate cancer cells; settings: earlier demonstration by the present inventors; cited from earlier work
[2] = tested on: MC3T3-E1 cells; assay: Cell proliferation assay (cell counting); assay type: cell-based, mouse
Procedure: To examine progression of cell proliferation, MC3T3-E1 cells (1×10^5/ml medium per well) were cultured using a 24-well plate in a-MEM supplemented with 10% FBS and 1% P/S at 37°C in a water-saturated atmosphere containing 5% CO2 and 95% air. The cells were cultured for 1, 2, 3, 4, or 5 days in the presence of a vehicle (1% ethanol as final concentration) or DHMBA (10 mM). In another experiment, to evaluate the effects of increased concentrations of DHMBA on MC3T3-E1 cells, the cells (1×10^5/ml per well) were cultured using a 24-well plate in DMEM (containing 10% FBS and 1% P/S). The cells were cultured for 3 days in the presence of either a reagent vehicle (1% ethanol as final concentration) or DHMBA (0.1, 1, 10, 100, or 1000 mM).
(§1) To evaluate the effects of DHMBA on cell death of osteoblasts MC3T3-E1, the cells (1×10^5/ml medium per well in a 24-well plate) were cultured in a-MEM containing 10% FBS and 1% P/S. After culturing for 3 days until reaching subconfluence, either a reagent vehicle (1% ethanol as final concentration) or DHMBA (0.1, 1, 10, 100, or 1000 mM) was added, and the cells were further cultured for 48 hours. After culture, to count the number of cells attached to each well, a […] containing 0.05% trypsin and EDTA (0.1 ml per well) was added, and then the culture plates were incubated at 37°C for 2 minutes. Subsequently, a-MEM (0.9 ml) containing 10% FBS and 1% P/S was added, and the cells were detached and mixed by pipetting. The cell suspension (0.1 ml) was mixed with 0.1 ml of 0.5% trypan blue staining solution. By this staining, […]. Viable cells were counted under a microscope (Olympus MTV-3) using a hemocytometer (Sigma-Aldrich, St. Louis, MO) and a cell counter (H-102P, Line Seiki Co., Ltd., Tokyo, Japan), and the average of two counts was calculated. Cell numbers were expressed as the number per well.

[3] = cited from earlier work; for peroxyl radical scavenging activity relative to Trolox: greater than Trolox
[4] = tested on: MC3T3-E1 cells; assay: Cell death assay (count of attached cells after 48 hours from subconfluence); assay type: cell-based, mouse
Procedure: as §1

[5] = tested on: RAW264.7 cells; assay: TNF-a production assay (ELISA); assay type: cell-based, mouse; settings: LPS 10 or 100 ng/ml, DHMBA 1 or 10 mM; Fig. 7A
Procedure: RAW264.7 cells (1× 10^5/ml per well) were cultured in DMEM containing 10% FBS and 1% P/S in a 24-well plate for 3 days until reaching subconfluence. […] The cells were detached from each culture dish to count the cell numbers as described in the section "Cell proliferation assay". […] The concentration of TNF-a in the medium was analyzed using a mouse TNF-a ELISA kit (catalog no. KHC301) purchased from Cayman Chemical Company (Ann Arbor, MI, USA) in accordance with the manufacturer's instructions. TNF-a production was expressed as the amount of TNF-a secreted into the medium in picograms per milliliter (pg/ml).

[6] = tested on: MC3T3-E1 cells; assay: Osteoblast differentiation assay and Alizarin Red S staining (calcification); assay type: cell-based, mouse
Procedure: MC3T3-E1 cells (10^5 cells/ml medium per well in a 12-well plate) were cultured for 3 days in a-MEM (1.0 ml per well) containing 10% FBS and 1% P/S. Thereafter, the medium was replaced, as previously described, with calcification-promoting medium, that is, a-MEM supplemented with 10% FBS, 1% P/S, L-ascorbic acid ([…]), and 4 mM b- glycerophosphoric acid. DHMBA was added at a concentration of 1 or 10 mM, and the cells were cultured for 18 days, with the medium replaced every 3 days with fresh medium. On day 18 of culture, the cells were rinsed with PBS and fixed by addition of ice-cold 75% ethanol at 4°C for 30 minutes. Then, calcium deposition was visualized by staining with Alizarin Red S (40 mM, pH 6.2). After incubation at room temperature for 30 minutes, the staining solution was removed by thorough washing with distilled water. Stained cells on the plates were photographed under a microscope (×40) (Olympus IX71, Olympus Corp., Tokyo, Japan) and imaged using ImageJ2 software. For quantification, the stained cells in each plate were solubilized by addition of 10% cetylpyridinium chloride solution, and absorbance was measured at 570 nm.

COc1c(O)cc(CO)cc1O [DHMBA, 3,5-dihydroxy-4-methoxybenzyl alcohol]
metastatic activity of bone-metastatic prostate cancer cells [1]: suppressive effects
proliferation of bone-metastatic prostate cancer cells [1]: suppressive effects
proliferation of MC3T3-E1 cells ([2]; DHMBA 10 mM, cultured 1, 2, 3, 4, or 5 days, vs vehicle (1% ethanol), Fig. 1A): no significant change
proliferation of MC3T3-E1 cells ([2]; DHMBA 0.1, 1, 10, or 100 mM, 3 days, Fig. 1B): not changed
cell proliferation ([2]; DHMBA 1000 mM (highest concentration tested), 3 days, Fig. 1B): significant decrease
TNF-a-induced inhibition of cell proliferation ([2]; TNF-a 1 or 10 ng/ml plus DHMBA 1 or 10 mM, 3 days, Fig. 3A): suppressed
reaction with HOO(•) ([3]; compared with other known antioxidants such as resveratrol and ascorbic acid): more rapidly
peroxyl radical scavenging activity relative to Trolox ([3]; in aqueous media): four orders of magnitude
peroxyl radical scavenging activity relative to Trolox ([3]; in lipid media): approximately 15 fold
number of cells attached to the dishes (cell death) ([4]; DHMBA 0.1, 1, 10, or 100 mM, 48 hours after subconfluence, Fig. 1C): not changed
number of cells (cell death) ([4]; DHMBA 1000 mM, 48 hours after subconfluence, Fig. 1C): significantly decreased
TNF-a-enhanced death of MC3T3-E1 cells ([4]; TNF-a 1 or 10 ng/ml plus DHMBA 1 or 10 mM, 48 hours, Fig. 3B): suppressed
LPS-induced increase of production of TNF-a in RAW264.7 cells [5]: suppressed
calcification of MC3T3-E1 cells ([6]; DHMBA 1 or 10 mM, 18 days in calcification-promoting medium, Alizarin Red, absorbance 570 nm, Figs. 2A and 2B): enhanced
TNF-a-induced suppression of calcification of osteoblasts ([6]; TNF-a 1 ng/ml plus DHMBA 1 or 10 mM, 18 days, Fig. 4): suppressed
